This note sets out measurements from patent US20070173488A1, “Pyrazolothiazole Protein Kinase Modulators” (SGX Pharmaceuticals, Inc., priority 2005, published 2007).

One test concerns the target T1, CDK4/CycD1 (Homo sapiens, UniProt P11802).
T1 construct: purchased ProQuinase GmbH, Freiburg, Germany (assay service)
The test is described as follows: 33PanQuinase Activity Assay (ProQuinase GmbH). It counts as biochemical. The text has this: ^33PanQuinase Activity Assay (ProQuinase GmbH) and SelectScreen™ Kinase Profiling (Invitrogen Corp.)
^33PanQuinase Activity Assay is a proprietary, radioisotopic protein kinase assay developed by ProQuinase GmbH, Freiburg, Germany. Details on assay conditions can be found on the company's website.

The test system of the next test is GTL16 cells. The test can be described thus: 96-well XTT cell survival assay (GTL16 cells). It counts as cell-based. To be noted: Homo sapiens, GTL 16, 72 hours. On the procedure: (§1) GTL16 cells were maintained in DMEM Medium supplemented with 10% fetal bovine serum (FBS) 2 mM L-Glutamine and 100 units penicillin/100 μg streptomycin, at 37° C. in 5% CO2.
(§2) Compounds were tested in the following assays in duplicate.
(§3) 96-well XTT assay (GLT16 cells): One day prior to assay the growth media was aspirated off and assay media was added to cells. On the day of the assay, the cells were grown in assay media containing various concentrations of compounds (duplicates) on a 96-well flat bottom plate for 72 hours at 37° C. in 5% CO2. The starting cell number was 5000 cells per well and volume was 120 μl. At the end of the 72-hour incubation, 40 μl of XTT labeling mixture (50:1 solution of sodium 3′-[1-(phenylaminocarbonyl)-3,4-tetrazolium]-bis (4-methoxy-6-nitro) benzene sulfonic acid hydrate and Electron-coupling reagent: PMS (N-methyl dibenzopyrazine methyl sulfate) were added to each well of the plate. After an additional 5 hours of incubation at 37° C., the absorbance reading at 450 nm with a background correction of 650 nm was measured with a spectrophotometer.
A general note: Tetrazolium dyes change colour on reduction, which living cells bring about.

A further test has as its system HCT116 cells. The test is described as follows: 96-well XTT cell survival assay (HCT116 cells). It counts as cell-based. As to conditions: Homo sapiens, HCT-116, 72 hours. On the procedure: HCT116 cells were maintained in McCoy's 5a Medium supplemented with 10% fetal bovine serum (FBS) 2 mM L-Glutamine and 100 units penicillin/100 μg streptomycin, at 37° C. in 5% CO2.
as §2
as §3, with “assay (HCT116” for “assay (GLT16”, “cells): Cells” for “cells): One day prior to assay the growth media was aspirated off and assay media was added to cells. On the day of the assay, the cells”, “in growth” for “in assay”, “additional 2-6” for “additional 5”, “at” for “at 450 nm with a background correction of”

The target in another test is Met (Homo sapiens, UniProt P08581). The test is described as follows: Met phosphorylation assay in GTL16 cells. It counts as cell-based. Details: endogenous in cells; host or cells: GTL16 cells. To be noted: compound 1 hour, anti-Phospho-Met (Tyr1234/1235), read-out: Met Phosp. On the procedure: as §1, §2
Met phosphorylation assay: GTL16 cells were plated out at […] cells per 60×15 mm dish (Falcon) in 3 mL of assay media. The following day compound at various concentrations were added in assay media and incubated for 1 hour at 37° C. 5% CO2. After 1 hour the media was aspirated, and the cells were washed once with 1×PBS. The PBS was aspirated and the cells were harvested in 100 μL of modified RIPA lysis buffer (Tris.Cl pH 7.4, 1% NP-40, 5 mM EDTA, 5 mM NaPP, 5 mM NaF, 150 mM NaCl, Protease inhibitor cocktail (Sigma), 1 mM PMSF, 2 mM NaVO4) and transferred to a 1.7 mL eppendorf tube and incubated on ice for 15 minutes. After lysis, the tubes were centrifuged (10 minutes, 14,000 g, 4° C.). Lysates were then transferred to a fresh eppendorf tube. The samples were diluted 1:2 (250,000 cells/tube) with 2×SDS PAGE loading buffer and heated for 5 minutes at 98° C. The lysates were separated on a NuPage 4-12% Bis-Tris Gel 1.0 mm×12 well (Invitrogen), at 200V, 400 mA for approximately 40 minutes. The samples were then transferred to a 0.45 micron Nitrocellulose membrane Filter Paper Sandwich (Invitrogen) for 1 hour at 75V, 400 mA. After transferring, the membranes were placed in blocking buffer for 1 hour at room temperature with gentle rocking. The blocking buffer was removed and a 1:500 dilution of anti-Phospho-Met (Tyr1234/1235) antibody (Cell Signaling Technologies Cat. # 3126L) in 5% BSA, 0.05% Tween 20 in 1×PBS was added and the blots were incubated overnight at room temperature. The following day the blots were washed three times with 1×PBS, 0.1% Tween20. A 1:3000 dilution of HRP conjugated goat anti-rabbit antibody (Jackson ImmunoResearch Laboratories Cat. # 111-035-003) in blocking buffer, was added and incubated for 1 hr at room temperature with gentle rocking. The blot was wash 3 times in PBS, 0.1% Tween20 and visualized by chemiluminescence with SuperSignal West Pico Chemiluminescent Substrate (Pierce #34078).

SMILES strings stand for the structures. pIC50: −log10 of the molar value.

T1 sequence (P11802 whole entry): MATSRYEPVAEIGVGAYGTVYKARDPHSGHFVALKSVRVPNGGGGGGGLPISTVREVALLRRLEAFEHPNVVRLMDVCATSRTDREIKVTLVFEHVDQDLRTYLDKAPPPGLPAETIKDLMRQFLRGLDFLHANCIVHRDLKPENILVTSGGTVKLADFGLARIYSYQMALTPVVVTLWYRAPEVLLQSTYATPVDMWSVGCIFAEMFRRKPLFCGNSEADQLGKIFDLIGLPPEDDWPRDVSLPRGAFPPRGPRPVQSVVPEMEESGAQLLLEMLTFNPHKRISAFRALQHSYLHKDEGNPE
T1 sequence (P24385 whole entry partner): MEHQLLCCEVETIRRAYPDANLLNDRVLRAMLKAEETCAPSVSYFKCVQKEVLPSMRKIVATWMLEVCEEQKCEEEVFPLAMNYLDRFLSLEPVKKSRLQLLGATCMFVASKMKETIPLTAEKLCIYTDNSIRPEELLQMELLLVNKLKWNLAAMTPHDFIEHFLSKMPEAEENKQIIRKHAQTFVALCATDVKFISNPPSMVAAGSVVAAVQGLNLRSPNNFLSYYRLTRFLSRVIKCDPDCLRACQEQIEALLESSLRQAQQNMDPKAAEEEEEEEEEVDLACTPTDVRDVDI
Met, sequence (P08581 25-1390): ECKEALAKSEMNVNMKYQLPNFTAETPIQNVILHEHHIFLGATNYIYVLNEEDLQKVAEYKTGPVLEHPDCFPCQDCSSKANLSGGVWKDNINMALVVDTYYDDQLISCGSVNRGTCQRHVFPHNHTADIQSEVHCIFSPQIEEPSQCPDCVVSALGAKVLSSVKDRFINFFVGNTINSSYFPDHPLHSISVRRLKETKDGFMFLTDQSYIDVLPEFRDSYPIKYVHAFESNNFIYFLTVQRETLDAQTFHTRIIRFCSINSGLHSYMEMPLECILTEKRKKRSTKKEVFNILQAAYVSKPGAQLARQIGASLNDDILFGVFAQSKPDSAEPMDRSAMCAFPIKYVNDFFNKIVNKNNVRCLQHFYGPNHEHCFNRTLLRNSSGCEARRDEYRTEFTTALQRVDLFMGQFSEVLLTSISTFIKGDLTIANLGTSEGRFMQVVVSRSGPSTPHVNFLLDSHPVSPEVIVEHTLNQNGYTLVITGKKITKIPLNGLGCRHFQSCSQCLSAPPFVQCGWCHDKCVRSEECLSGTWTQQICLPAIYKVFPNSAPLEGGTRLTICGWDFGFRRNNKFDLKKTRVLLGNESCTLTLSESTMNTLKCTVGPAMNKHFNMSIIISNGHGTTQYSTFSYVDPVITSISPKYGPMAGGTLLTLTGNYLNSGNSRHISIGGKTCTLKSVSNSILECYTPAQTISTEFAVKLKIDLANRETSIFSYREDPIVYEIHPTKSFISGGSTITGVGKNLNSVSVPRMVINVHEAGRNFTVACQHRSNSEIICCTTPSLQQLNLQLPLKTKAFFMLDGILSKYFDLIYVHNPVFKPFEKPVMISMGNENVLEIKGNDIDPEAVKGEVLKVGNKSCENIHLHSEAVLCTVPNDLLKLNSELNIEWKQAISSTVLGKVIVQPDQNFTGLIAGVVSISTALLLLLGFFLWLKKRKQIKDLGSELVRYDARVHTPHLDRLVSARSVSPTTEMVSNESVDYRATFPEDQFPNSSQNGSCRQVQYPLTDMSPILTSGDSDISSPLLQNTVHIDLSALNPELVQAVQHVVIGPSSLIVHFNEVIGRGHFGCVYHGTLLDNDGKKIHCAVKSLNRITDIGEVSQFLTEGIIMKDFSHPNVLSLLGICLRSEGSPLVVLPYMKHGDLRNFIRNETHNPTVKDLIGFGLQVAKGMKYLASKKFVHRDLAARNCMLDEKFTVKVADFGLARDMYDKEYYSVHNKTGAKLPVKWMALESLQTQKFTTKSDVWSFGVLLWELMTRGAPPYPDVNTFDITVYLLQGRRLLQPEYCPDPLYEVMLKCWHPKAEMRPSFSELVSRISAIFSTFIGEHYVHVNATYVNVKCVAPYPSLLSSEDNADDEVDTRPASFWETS

As to `O=C(Nc1cc[nH]n1)Nc1nc2[nH]nc(-n3cncc3-c3ccccc3Cl)c2s1` [1-{3-[5-(2-Chloro-phenyl)-imidazol-1-yl]-1H-pyrazolo[3,4-d]thiazol-5-yl}-3-(1H-pyrazol-3-yl)-urea], the pIC50 at CDK4/CycD1 is 6.00 to 7.00; in the test on GTL16 cells it was above 7.00; in the test on HCT116 cells, 6.00 to 7.00; at Met it was below 5.00.

For `O=C(Nc1nc2[nH]nc(-n3cncc3-c3ccccc3)c2s1)C1CC1` [Cyclopropanecarboxylic acid [3-(5-phenyl-imidazol-1-yl)-1H-pyrazolo[3,4-d]thiazol-5-yl]-amide], the pIC50 in the test with GTL16 cells was 5.00 to 6.00; with HCT116 cells, 6.00 to 7.00.

The compound `O=C(Nc1nc2[nH]nc(-n3cncc3-c3ccccn3)c2s1)C1CC1` [Cyclopropanecarboxylic acid [3-(5-pyridin-2-yl-imidazol-1-yl)-1H-pyrazolo[3,4-d]thiazol-5-yl]-amide] had a pIC50 in the test on HCT116 cells of 6.00 to 7.00.

In turn, `O=C(Nc1nc2[nH]nc(-n3cncc3-c3cc(Cl)cc(Cl)c3Cl)c2s1)C1CC1` [Cyclopropanecarboxylic acid {3-[5-(2,3,5-trichloro-phenyl)-imidazol-1-yl]-1H-pyrazolo[3,4-d]thiazol-5-yl}-amide] gave a pIC50 against CDK4/CycD1 of 5.00 to 6.00.

Turning to `O=C(Nc1nc2[nH]nc(-n3cncc3-c3c(Cl)ccc(Cl)c3Cl)c2s1)C1CC1` [Cyclopropanecarboxylic acid {3-[5-(2,3,6-trichloro-phenyl)-imidazol-1-yl]-1H-pyrazolo[3,4-d]thiazol-5-yl}-amide], the pIC50 in the test with GTL16 cells is 6.00 to 7.00; in the test on HCT116 cells it was 5.00 to 6.00.

Take `O=C(Nc1nc2[nH]nc(-n3cncc3-c3cccc(F)c3F)c2s1)C1CC1` [Cyclopropanecarboxylic acid {3-[5-(2,3-difluoro-phenyl)-imidazol-1-yl]-1H-pyrazolo[3,4-d]thiazol-5-yl}-amide]: the pIC50 was above 7.00 at CDK4/CycD1, 5.00 to 6.00 with GTL16 cells, 6.00 to 7.00 in the test on HCT116 cells and below 5.00 on Met.

Turning to `O=C(Nc1nc2[nH]nc(-n3cncc3-c3c(Cl)cccc3Cl)c2s1)C1CC1` [Cyclopropanecarboxylic acid {3-[5-(2,6-dichloro-phenyl)-imidazol-1-yl]-1H-pyrazolo[3,4-d]thiazol-5-yl}-amide], the pIC50 is above 7.00 at CDK4/CycD1, above 7.00 with GTL16 cells, 6.00 to 7.00 with HCT116 cells and 5.00 to 6.00 on Met.

As for `O=C(Nc1nc2[nH]nc(-n3cncc3-c3ccccc3Cl)c2s1)C1CC1` [Cyclopropanecarboxylic acid {3-[5-(2-chloro-phenyl)-imidazol-1-yl]-1H-pyrazolo[3,4-d]thiazol-5-yl}-amide], the pIC50 was above 7.00 on CDK4/CycD1, 6.00 to 7.00 with GTL16 cells, 6.00 to 7.00 in the test on HCT116 cells and 5.00 to 6.00 on Met.

The compound `NC(=O)COc1ccc(-c2cncn2-c2n[nH]c3nc(NC(=O)C4CC4)sc23)c(Cl)c1` [Cyclopropanecarboxylic acid {3-[5-(4-carbamoylmethoxy-2-chloro-phenyl)-imidazol-1-yl]-1H-pyrazolo[3,4-d]thiazol-5-yl}-amide] had a pIC50 on CDK4/CycD1 above 7.00.
